Experimental data as given in paper doi:10.1101/2021.07.15.452591v1 (biorxiv, 2021).

Molecular target: T1, AmnC (2-aminomuconic 6-semialdehyde dehydrogenase) (Pseudomonas sp., UniProt Q9KWS5, DEL124-138/DEL477-491)
T1 sequence (Q9KWS5 1-476 DEL124-138): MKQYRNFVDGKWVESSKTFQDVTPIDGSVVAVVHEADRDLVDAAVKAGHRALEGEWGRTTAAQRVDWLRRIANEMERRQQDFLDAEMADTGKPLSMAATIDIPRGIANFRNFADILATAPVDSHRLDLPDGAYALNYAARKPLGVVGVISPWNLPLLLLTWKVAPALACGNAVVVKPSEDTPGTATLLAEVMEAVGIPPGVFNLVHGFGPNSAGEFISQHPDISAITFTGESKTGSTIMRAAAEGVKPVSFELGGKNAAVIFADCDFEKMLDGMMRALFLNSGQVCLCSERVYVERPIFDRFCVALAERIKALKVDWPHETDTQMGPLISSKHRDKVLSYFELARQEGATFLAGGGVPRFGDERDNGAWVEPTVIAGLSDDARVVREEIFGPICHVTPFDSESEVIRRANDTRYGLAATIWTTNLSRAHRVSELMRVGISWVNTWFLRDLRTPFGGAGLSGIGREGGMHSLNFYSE
Experiment: microscale thermophoresis
Type: binding

## NC(=O)c1ccc[n+]([C@@H]2O[C@H](COP(=O)(O)OP(=O)(O)OC[C@H]3O[C@@H](n4cnc5c(N)ncnc54)[C@H](O)[C@@H]3O)[C@@H](O)[C@H]2O)c1 [NAD^+]
  Kd: 3 ± 0.3 mM
